{"source": "paper PMC11436758", "about": "“Computer-aided drug design to generate a unique antibiotic family” (Nature Communications, 2024)", "molecular_target": "AcpS (Escherichia coli, UniProt P24224)", "sequence (P24224 2-126)": "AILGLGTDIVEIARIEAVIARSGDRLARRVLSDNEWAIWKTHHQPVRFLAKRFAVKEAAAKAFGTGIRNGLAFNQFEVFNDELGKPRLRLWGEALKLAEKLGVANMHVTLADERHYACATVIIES", "test": "AcpS activity against increasing concentration of CoA with and without DNM0547 (mode of inhibition)", "type": "biochemical", "conditions": "Suppl Fig 2, [AcpS] 5 nM; for V(+Inhibitor): replicates", "from_the_text": "AcpS was chosen as a potential new antibiotic target for several important reasons beyond its high level of conservation across bacterial species. […] We undertook a more in-depth characterization of AcpS inhibition using DNM0547 as the test compound for this antibiotic family. The computer-aided drug design strategy used positions DNM compounds in the active site of AcpS. If DNM0547 is binding to the active site of AcpS competitive inhibition against an AcpS substrate would be predicted.\nThe acpS gene was amplified from S. aureus and E. coli genomic DNA and inserted into a pET23b vector using standard recombinant DNA methodology such that the protein product would result in addition of a C-terminal 6x-His tag in frame with the AcpS open reading frames. The DNA sequences inserted in the vector were sequenced and found to be identical to the known E. coli and S. aureus acpS open reading frames. Recombinant His-Tagged AcpS expression was induced by IPTG addition and overnight culture. Cell lysate was obtained by sequential aspiration through 16, 18 and 21 G needles in a buffer of 50 mM Tris-HCl (pH 8.5), 10 mM MgCl2, 2 mM DTT, 5% glycerol, and further adjusted to pH 8.1 with MES. […] In a typical AcpS enzyme activity assay, 57 µM [^3H]acetyl-CoA, 2 µg apo-ACP, 10 mM MgCl2, 5 mM DTT, 50 mM Na phosphate (pH 7.0), and AcpS in a final volume of 10 µL were incubated at room temperature in a 1.5 mL microcentrifuge tube. At 5, 10, 15, and 20 min 2 µL of reaction were added to 750 µl 10% TCA on ice. Bovine serum albumin (BSA; 20 µl of a 25 mg/mL solution) was then added to facilitate precipitation of radiolabeled protein. The samples were centrifuged at 12,000 × g for 5 min. Supernatants were removed, and the pellets were rinsed twice with 750 µl of 10% trichloroacetic acid. Pellets were resuspended in 50 µl of formic acid and transferred to scintillation vials. 2 mL of scintillation fluid was added, and the amount of [^3H]-labeled holo-ACP formed was quantified by liquid scintillation counting. The enzymatic reaction proceeded in a linear manner depending on time (10–40 min) and enzyme concentration (1–5 nM). Routinely, each data point was determined at least by triplicate.\nSupplementary Figure 2. […] AcpS enzyme activity was […]\ndetermined versus using purified AcpS and increasing concentrations of CoA in the presence and absence of 8 µM DNM0547. Data are the mean values +/ - SD of three separate experiments performed in triplicate from three separate enzyme preparation. GraphPad Prism was used to determine V max and Km values.", "note": "Where “and” joins values, the source holds several entries; their conditions need not be identical. Equal values may be shown once."}
{"smiles": "CC(C)c1cc(Cl)ccc1-c1cc(-c2nnn[nH]2)c(-c2ccc(Cl)cc2C(C)C)s1", "note": "[DNM0547]", "values": [{"measurement": "V(+Inhibitor) Mean", "setting": "Acetyl CoA 0.06 mM", "result": 20.55, "unit": "nM/min"}, {"measurement": "V(+Inhibitor)", "setting": "Acetyl CoA 0.06 mM", "result": "19.96 nM/min and 23.46 nM/min and 18.23 nM/min"}, {"measurement": "V(+Inhibitor) Mean", "setting": "Acetyl CoA 0.24 mM", "result": 101.48, "unit": "nM/min"}, {"measurement": "V(+Inhibitor)", "setting": "Acetyl CoA 0.24 mM", "result": "97.72 nM/min and 105.12 nM/min and 101.61 nM/min"}, {"measurement": "V(+Inhibitor) Mean", "setting": "Acetyl CoA 0.48 mM", "result": 125.64, "unit": "nM/min"}, {"measurement": "V(+Inhibitor)", "setting": "Acetyl CoA 0.48 mM", "result": "122.32 nM/min and 124.81 nM/min and 129.79 nM/min"}, {"measurement": "V(+Inhibitor) Mean", "setting": "Acetyl CoA […]", "result": 57.60, "unit": "nM/min"}]}
